Measured values from US20260285850A1, “SUBSTITUTED OXAZOLIDINONES AND IMIDAZOLINONES AS HERBICIDES” (FMC CORPORATION, priority 2023, published 2026).

Tests used:
Format in all cases: in vivo
[1] = system: galium (catchweed bedstraw, Galium aparine); experiment: Test A postemergence application, visual injury rating 0-100; settings: Postemergence, 10 days, 0 is no effect, 100 is complete control
Outline: (§1)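 Plants were grown in a loam soil-sand blend and treated with test chemical in a non-phytotoxic solvent mixture containing surfactant, either sprayed on soil preemergence or applied postemergence to 2-10 cm plants. After 10 days in a greenhouse, injury was scored visually against untreated controls, 0 meaning no effect and 100 complete control.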

corn (Zea mays) [2] = experiment: as above; settings: Postemergence, 10 days, 0 is no effect, 100 is complete control
Outline: as §1

soybean (Glycine max) [3] = experiment: as above; settings: Postemergence, 10 days, 0 is no effect, 100 is complete control
Outline: as §1

[4] = system: ragweed (common ragweed, Ambrosia artemisiifolia); experiment: as above; settings: Postemergence, 10 days, 0 is no effect, 100 is complete control
Outline: as §1

[5] = system: oat, wild (wild oat, Avena fatua); experiment: as above; settings: Postemergence, 10 days, 0 is no effect, 100 is complete control
Outline: as §1

[6] = system: palmer (palmer amaranth, palmer pigweed, Amaranthus palmeri); experiment: as above; settings: Postemergence, 10 days, 0 is no effect, 100 is complete control
Outline: as §1

[7] = system: ryegrass, Italian (italian ryegrass, Lolium multiflorum); experiment: as above; settings: Postemergence, 10 days, 0 is no effect, 100 is complete control
Outline: as §1

[8] = system: wheat (Triticum aestivum); experiment: as above; settings: Postemergence, 10 days, 0 is no effect, 100 is complete control
Outline: as §1

[9] = system: green foxtail (Setaria viridis); experiment: as above; settings: Postemergence, 10 days, 0 is no effect, 100 is complete control
Outline: as §1

[10] = system: blackgrass (Alopecurus myosuroides); experiment: as above; settings: Postemergence, 10 days, 0 is no effect, 100 is complete control
Outline: as §1

[11] = system: horseweed (Erigeron canadensis); experiment: as above; settings: Postemergence, 10 days, 0 is no effect, 100 is complete control
Outline: as §1

kochia (Bassia scoparia) [12] = experiment: as above; settings: Postemergence, 10 days, 0 is no effect, 100 is complete control
Outline: as §1

[13] = system: barnyardgrass (Echinochloa crus-galli); experiment: as above; settings: Postemergence, 10 days, 0 is no effect, 100 is complete control
Outline: as §1

corn (Zea mays) [14] = experiment: Test A preemergence soil spray, visual injury rating 0-100; settings: 10 days, 0 = no effect, 100 = complete control
Outline: as §1

soybean (Glycine max) [15] = experiment: as above; settings: 10 days, 0 = no effect, 100 = complete control
Outline: as §1

[16] = system: oat, wild (wild oat, Avena fatua); experiment: as above; settings: 10 days, 0 = no effect, 100 = complete control
Outline: as §1

[17] = system: palmer (palmer amaranth, palmer pigweed, Amaranthus palmeri); experiment: as above; settings: 10 days, 0 = no effect, 100 = complete control
Outline: as §1

[18] = system: ryegrass, Italian (italian ryegrass, Lolium multiflorum); experiment: as above; settings: 10 days, 0 = no effect, 100 = complete control
Outline: as §1

[19] = system: wheat (Triticum aestivum); experiment: as above; settings: 10 days, 0 = no effect, 100 = complete control
Outline: as §1

[20] = system: green foxtail (Setaria viridis); experiment: as above; settings: 10 days, 0 = no effect, 100 = complete control
Outline: as §1

[21] = system: blackgrass (Alopecurus myosuroides); experiment: as above; settings: 10 days, 0 = no effect, 100 = complete control
Outline: as §1

kochia (Bassia scoparia) [22] = experiment: as above; settings: 10 days, 0 = no effect, 100 = complete control
Outline: as §1

[23] = system: barnyardgrass (Echinochloa crus-galli); experiment: as above; settings: 10 days, 0 = no effect, 100 = complete control
Outline: as §1

[24] = system: barnyardgrass (Echinochloa crusgalli); experiment: Test B flooded paddy test, visual plant response rating 0-100; settings: 250 g ai/ha, Flood, applied to paddy water, evaluated after 13 days
Outline: (§2)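 Plants were grown to the 2-leaf stage, then pots were flooded to 3 cm above the soil and test compounds were applied directly into the paddy water. Water depth was held there throughout; after 13 days in a greenhouse, injury was scored visually against untreated controls.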

rice (Oryza sativa) = experiment: as above; settings: 250 g ai/ha, Flood, applied to paddy water, evaluated after 13 days
Outline: as §2

[25] = system: ducksalad (Heteranthera limosa); experiment: as above; settings: 250 g ai/ha, Flood, applied to paddy water, evaluated after 13 days
Outline: as §2

[26] = system: sedge, umbrella (small-flower umbrella sedge, Cyperus difformis); experiment: as above; settings: 250 g ai/ha, Flood, applied to paddy water, evaluated after 13 days
Outline: as §2

## CC1(C(=O)NC2C=CC(C(=O)OCC#N)C2)CN(c2cc(F)cc(F)c2)C(=O)O1 (centres unmarked) [Compound 35]
[1]; 125 g ai/ha
  Galium plant response rating (0 to 100 scale): 80
[1]; 500 g ai/ha
  Galium plant response rating (0 to 100 scale): 80
Corn (Zea mays) [2]; 125 g ai/ha
  Corn plant response rating (0 to 100 scale): 100
Corn (Zea mays) [2]; 500 g ai/ha
  Corn plant response rating (0 to 100 scale): 100
Soybean (Glycine max) [3]; 125 g ai/ha
  Soybean plant response rating (0 to 100 scale): 70
Soybean (Glycine max) [3]; 500 g ai/ha
  Soybean plant response rating (0 to 100 scale): 90
[4]; 125 g ai/ha
  Ragweed plant response rating (0 to 100 scale): 70
[4]; 500 g ai/ha
  Ragweed plant response rating (0 to 100 scale): 80
[5]; 125 g ai/ha
  Oat, Wild plant response rating (0 to 100 scale): 100
[5]; 500 g ai/ha
  Oat, Wild plant response rating (0 to 100 scale): 100
[6]; 125 g ai/ha
  Amaranth, Palmer / Pigweed, Palmer plant response rating (0 to 100 scale): 80
[6]; 500 g ai/ha
  Amaranth, Palmer / Pigweed, Palmer plant response rating (0 to 100 scale): 100
[7]; 125 g ai/ha
  Ryegrass, Italian plant response rating (0 to 100 scale): 90
[7]; 500 g ai/ha
  Ryegrass, Italian plant response rating (0 to 100 scale): 90
[8]; 125 g ai/ha
  Wheat plant response rating (0 to 100 scale): 70
[8]; 500 g ai/ha
  Wheat plant response rating (0 to 100 scale): 80
[9]; 125 g ai/ha
  Foxtail, Green plant response rating (0 to 100 scale): 90
[9]; 500 g ai/ha
  Foxtail, Green plant response rating (0 to 100 scale): 90
[10]; 125 g ai/ha
  Blackgrass plant response rating (0 to 100 scale): 90
[10]; 500 g ai/ha
  Blackgrass plant response rating (0 to 100 scale): 100
[11]; 125 g ai/ha
  Horseweed plant response rating (0 to 100 scale): 80
[11]; 500 g ai/ha
  Horseweed plant response rating (0 to 100 scale): 90
Kochia (Bassia scoparia) [12]; 125 g ai/ha
  Kochia plant response rating (0 to 100 scale): 70
Kochia (Bassia scoparia) [12]; 500 g ai/ha
  Kochia plant response rating (0 to 100 scale): 70
[13]; 125 g ai/ha
  Barnyardgrass plant response rating (0 to 100 scale): 100
[13]; 500 g ai/ha
  Barnyardgrass plant response rating (0 to 100 scale): 100
Corn (Zea mays) [14]; 125 g ai/ha
  Corn plant response rating (0 to 100 scale): 90
Corn (Zea mays) [14]; 500 g ai/ha
  Corn plant response rating (0 to 100 scale): 100
Soybean (Glycine max) [15]; 125 g ai/ha
  Soybean plant response rating (0 to 100 scale): 80
Soybean (Glycine max) [15]; 500 g ai/ha
  Soybean plant response rating (0 to 100 scale): 90
[16]; 125 g ai/ha
  Oat, Wild plant response rating (0 to 100 scale): 90
[16]; 500 g ai/ha
  Oat, Wild plant response rating (0 to 100 scale): 90
[17]; 125 g ai/ha
  Amaranth, Palmer plant response rating (0 to 100 scale): 100
[17]; 500 g ai/ha
  Amaranth, Palmer plant response rating (0 to 100 scale): 100
[18]; 125 g ai/ha
  Ryegrass, Italian plant response rating (0 to 100 scale): 100
[18]; 500 g ai/ha
  Ryegrass, Italian plant response rating (0 to 100 scale): 100
[19]; 125 g ai/ha
  Wheat plant response rating (0 to 100 scale): 90
[19]; 500 g ai/ha
  Wheat plant response rating (0 to 100 scale): 100
[20]; 125 g ai/ha
  Foxtail, Green plant response rating (0 to 100 scale): 90
[20]; 500 g ai/ha
  Foxtail, Green plant response rating (0 to 100 scale): 100
[21]; 125 g ai/ha
  Blackgrass plant response rating (0 to 100 scale): 70
[21]; 500 g ai/ha
  Blackgrass plant response rating (0 to 100 scale): 90
Kochia (Bassia scoparia) [22]; 125 g ai/ha
  Kochia plant response rating (0 to 100 scale): 90
Kochia (Bassia scoparia) [22]; 500 g ai/ha
  Kochia plant response rating (0 to 100 scale): 90
[23]; 125 g ai/ha
  Barnyardgrass plant response rating (0 to 100 scale): 100
[23]; 500 g ai/ha
  Barnyardgrass plant response rating (0 to 100 scale): 100
[24]
  Plant response rating, Barnyardgrass (0 to 100 scale, 0 is no effect and 100 is complete control): 95
Rice (Oryza sativa)
  Plant response rating, Rice (0 to 100 scale, 0 is no effect and 100 is complete control): 50
[25]
  Plant response rating, Ducksalad (0 to 100 scale, 0 is no effect and 100 is complete control): 90
[26]
  Plant response rating, Sedge, Umbrella (0 to 100 scale, 0 is no effect and 100 is complete control): 90
